Source: PubChem BioAssay (NCI)
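Five concentrations, 48 hours, 96-well plates. At the TGI there is no net growth.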

What was measured:
Assay in all cases: NCI-60 cell line screen, 48 h
[1] = test system: HOP-62 NSCLC
[2] = test system: TK-10 renal
[3] = test system: 786-0 renal
[4] = test system: RXF 393 renal
[5] = test system: MALME-3M melanoma
[6] = test system: NCI/ADR-RES ovarian
[7] = test system: IGROV1 ovarian
[8] = test system: HCC-2998 colon
[9] = test system: NCI-H522 lung
[10] = test system: T-47D breast
[11] = test system: COLO 205 colon
[12] = test system: OVCAR-3 ovarian
[13] = test system: CAKI-1 renal
[14] = test system: KM12 colon
[15] = test system: RPMI-8226 leukemia
[16] = test system: LOX IMVI melanoma
[17] = test system: NCI-H23 lung
[18] = test system: HS 578T breast
[19] = test system: MDA-MB-435
[20] = test system: EKVX NSCLC
[21] = test system: M14 melanoma
[22] = test system: MOLT-4 leukemia
[23] = test system: MDA-MB-231 breast
[24] = test system: SNB-19 CNS
[25] = test system: SW-620 colon
[26] = test system: BT-549 breast
[27] = test system: A498 renal
[28] = test system: OVCAR-5 ovarian
[29] = test system: UACC-62 melanoma
[30] = test system: SF-295 CNS
[31] = test system: OVCAR-8 ovarian
[32] = test system: SNB-75 CNS
[33] = test system: SF-268 CNS
[34] = test system: CCRF-CEM leukemia
[35] = test system: HOP-92 NSCLC
[36] = test system: SK-MEL-5 melanoma
[37] = test system: U251 CNS
[38] = test system: MCF7 breast
[39] = test system: SK-MEL-28 melanoma
[40] = test system: NCI-H460 lung
[41] = test system: SR leukemia
[42] = test system: NCI-H226 lung
[43] = test system: ACHN renal
[44] = test system: A549 NSCLC
[45] = test system: HT29 colon
[46] = test system: K-562 leukemia
[47] = test system: SK-OV-3 ovarian
[48] = test system: DU-145 prostate
[49] = test system: MDA-N
[50] = test system: HCT-116 colon
[51] = test system: HL-60(TB) leukemia
[52] = test system: SN12C renal
[53] = test system: UO-31 renal
[54] = test system: HCT-15 colon
[55] = test system: PC-3 prostate
[56] = test system: OVCAR-4 ovarian
[57] = test system: SK-MEL-2 melanoma
[58] = test system: UACC-257 melanoma

SMILES: CC(C)(C)OC(=O)C1CCC/C1=N/Nc1ccc([N+](=O)[O-])cc1[N+](=O)[O-] (configuration not stated)
- TGI [1]: > 100 µM
- TGI [2]: > 100 µM
- TGI [3]: > 100 µM
- TGI [4]: > 100 µM
- TGI [5]: > 100 µM
- TGI [6]: > 100 µM
- TGI [7]: > 100 µM
- TGI [8]: > 100 µM
- TGI [9]: > 100 µM
- TGI [10]: 88.1 µM
- TGI [11]: > 100 µM
- TGI [12]: > 100 µM
- TGI [13]: > 100 µM
- TGI [14]: > 100 µM
- TGI [15]: > 100 µM
- TGI [16]: > 100 µM
- TGI [17]: 63.5 µM
- TGI [18]: > 100 µM
- TGI [19]: 53.2 µM
- TGI [20]: 89.9 µM
- TGI [21]: > 100 µM
- TGI [22]: > 100 µM
- TGI [23]: > 100 µM
- TGI [24]: > 100 µM
- TGI [25]: > 100 µM
- TGI [26]: 93.2 µM
- TGI [27]: 65.4 µM
- TGI [28]: > 100 µM
- TGI [29]: > 100 µM
- TGI [30]: 88.9 µM
- TGI [31]: > 100 µM
- TGI [32]: 73.9 µM
- TGI [33]: > 100 µM
- TGI [34]: > 100 µM
- TGI [35]: > 100 µM
- TGI [36]: 29.3 µM
- TGI [37]: 56.1 µM
- TGI [38]: > 100 µM
- TGI [39]: > 100 µM
- TGI [40]: > 100 µM
- TGI [41]: > 100 µM
- TGI [42]: > 100 µM
- TGI [43]: > 100 µM
- TGI [44]: > 100 µM
- TGI [45]: > 100 µM
- TGI [46]: > 100 µM
- TGI [47]: > 100 µM
- TGI [48]: > 100 µM
- TGI [49]: > 100 µM
- TGI [50]: 78.5 µM
- TGI [51]: > 100 µM
- TGI [52]: > 100 µM
- TGI [53]: > 100 µM
- TGI [54]: > 100 µM
- TGI [55]: > 100 µM
- TGI [56]: > 100 µM

SMILES: CCOC(=O)CCc1cccc2c1oc1c(CCNC(=O)OCC3c4ccccc4-c4ccccc43)cccc12
- TGI [1]: 52.3 µM
- TGI [2]: > 100 µM
- TGI [3]: > 100 µM
- TGI [5]: 58.4 µM
- TGI [6]: > 100 µM
- TGI [7]: > 100 µM
- TGI [8]: > 100 µM
- TGI [9]: > 100 µM
- TGI [10]: 81.1 µM
- TGI [11]: > 100 µM
- TGI [12]: > 100 µM
- TGI [13]: 45.4 µM
- TGI [14]: > 100 µM
- TGI [15]: > 100 µM
- TGI [16]: > 100 µM
- TGI [17]: > 100 µM
- TGI [18]: 16.5 µM
- TGI [19]: > 100 µM
- TGI [20]: > 100 µM
- TGI [21]: > 100 µM
- TGI [22]: > 100 µM
- TGI [23]: > 100 µM
- TGI [24]: 70.6 µM
- TGI [25]: > 100 µM
- TGI [26]: 68.4 µM
- TGI [27]: > 100 µM
- TGI [28]: > 100 µM
- TGI [29]: 63.6 µM
- TGI [30]: > 100 µM
- TGI [31]: > 100 µM
- TGI [32]: 42.1 µM
- TGI [33]: 70.3 µM
- TGI [34]: > 100 µM
- TGI [35]: 85.6 µM
- TGI [36]: > 100 µM
- TGI [57]: > 100 µM
- TGI [37]: > 100 µM
- TGI [38]: > 100 µM
- TGI [39]: > 100 µM
- TGI [40]: > 100 µM
- TGI [41]: > 100 µM
- TGI [42]: > 100 µM
- TGI [43]: > 100 µM
- TGI [44]: > 100 µM
- TGI [46]: > 100 µM
- TGI [47]: > 100 µM
- TGI [48]: > 100 µM
- TGI [49]: > 100 µM
- TGI [50]: > 100 µM
- TGI [51]: > 100 µM
- TGI [58]: > 100 µM
- TGI [52]: > 100 µM
- TGI [53]: > 100 µM
- TGI [54]: > 100 µM
- TGI [55]: > 100 µM
- TGI [56]: > 100 µM
